pEC50: −log10 of the molar value.
Key:
[1] = system: CAL-51 cells; assay: CAL-51 Cell Proliferation Assay; format: cell-based; conditions: for pEC50: Homo sapiens, 120 hours incubation, 10-point dose response, 4-fold dilutions starting at 10 μM, Cell-Titer-Glo, read-out: CAL-51 Prolif EC50; for CAL-51 Prolif Ymin: minimal percent of DMSO control observed in the concentrations tested (Ymin-obs), 120 hours
How it was run: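 Cells seeded at 350/well in RPMI complete medium onto 10-point, 4-fold compound dilutions from 10 μM (0.1% DMSO), in duplicate, and grown 120 h at 37 °C. CellTiter-Glo luminescence, blank-subtracted and normalised to DMSO, was fitted with a four-parameter logistic to give EC50; Ymin-obs is the lowest observed percent of DMSO control.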

[2] = molecular target: T1, FAK (Homo sapiens, UniProt Q05397); assay: FAK-HiBiT Degradation Assay; format: cell-based; conditions: for DC50: JHH-4-FAK-HiBiT clone d01 cells, two hours incubation, 10-point dose response, 3-fold dilution starting at 1 μM, Nano-Glo HiBiT luminescence, read-out: FAK HiBiT EC50; for FAK HiBiT Ymin: lower limit of the four parameter fit (value A), Ymax derived using DMSO control, JHH-4-FAK-HiBiT cells, two hours
T1 construct: homozygous knock-in of a HiBiT tag (Promega Corporation, Madison, WI) to the C-terminus of the FAK gene in its natural genomic locus; endogenous in cells; host or cells: JHH-4-FAK-HiBiT clone d01 (CRISPR-Cas9 knock-in at the endogenous locus)
How it was run: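 JHH-4 cells with homozygous CRISPR knock-in of C-terminal HiBiT on endogenous FAK, treated 2 h at 37 °C with compounds in 10-point 3-fold series from 1 μM. HiBiT lytic luminescence read; EC50 from four-parameter logistic fit, Ymax set by DMSO control, Ymin as lower fit limit.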

T1 sequence (Q05397 whole entry): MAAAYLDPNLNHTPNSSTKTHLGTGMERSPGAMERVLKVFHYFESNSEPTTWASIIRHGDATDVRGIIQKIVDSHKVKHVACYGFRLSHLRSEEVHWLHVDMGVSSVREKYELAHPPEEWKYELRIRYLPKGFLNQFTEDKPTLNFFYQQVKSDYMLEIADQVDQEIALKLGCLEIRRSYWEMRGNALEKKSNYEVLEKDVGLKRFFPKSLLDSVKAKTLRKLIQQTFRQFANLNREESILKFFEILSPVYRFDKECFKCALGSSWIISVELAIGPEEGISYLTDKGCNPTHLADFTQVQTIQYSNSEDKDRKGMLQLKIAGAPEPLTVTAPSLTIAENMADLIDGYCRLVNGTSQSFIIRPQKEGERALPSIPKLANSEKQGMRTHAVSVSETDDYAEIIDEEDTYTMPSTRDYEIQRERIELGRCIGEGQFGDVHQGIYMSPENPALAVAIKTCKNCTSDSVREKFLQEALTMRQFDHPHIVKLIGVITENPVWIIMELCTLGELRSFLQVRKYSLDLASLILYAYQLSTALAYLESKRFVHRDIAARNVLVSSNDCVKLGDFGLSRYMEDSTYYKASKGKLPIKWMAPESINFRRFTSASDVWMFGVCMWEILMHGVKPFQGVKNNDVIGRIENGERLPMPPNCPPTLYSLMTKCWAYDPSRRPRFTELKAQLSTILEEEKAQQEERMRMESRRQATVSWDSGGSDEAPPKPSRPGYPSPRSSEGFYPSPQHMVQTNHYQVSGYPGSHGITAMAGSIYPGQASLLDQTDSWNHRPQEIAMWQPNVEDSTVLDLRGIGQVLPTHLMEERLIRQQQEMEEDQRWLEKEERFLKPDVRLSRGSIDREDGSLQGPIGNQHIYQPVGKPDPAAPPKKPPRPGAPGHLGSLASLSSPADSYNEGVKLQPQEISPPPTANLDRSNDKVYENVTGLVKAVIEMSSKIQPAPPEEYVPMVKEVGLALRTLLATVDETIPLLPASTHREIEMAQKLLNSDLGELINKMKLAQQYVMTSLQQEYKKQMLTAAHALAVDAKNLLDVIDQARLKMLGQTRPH

SMILES	pEC50 [1]	CAL-51 Prolif Ymin [1]	DC50 [2]	FAK HiBiT Ymin [2]
O=C1CC[C@H](N2Cc3cc(Cn4ncc5c(-c6ncc(F)cc6Cl)cc(N6CC(F)C6)nc54)ccc3C2=O)C(=O)N1 [Example 51, (3S)-3-(5-{[4-(3-chloro-5-fluoropyridin-2-yl)-6-(3-fluoroazetidin-1-yl)-1H-pyrazolo[3,4-b]pyridin-1-yl]methyl}-1-oxo-2,3-dihydro-1H-isoindol-2-yl)piperidine-2,6-dione]	8.83	30.14	2.23 nM	10.32
CCOc1ccc(-c2cc(N3CC[C@](C)(O)C3)nc3c2cnn3Cc2ccc3c(c2)CN(C2CCC(=O)NC2=O)C3=O)c(Cl)c1 (stereo partly drawn) [Example 96, 3-(5-{[4-(2-chloro-4-ethoxyphenyl)-6-[(3S)-3-hydroxy-3-methylpyrrolidin-1-yl]-1H-pyrazolo[3,4-b]pyridin-1-yl]methyl}-1-oxo-2,3-dihydro-1H-isoindol-2-yl)piperidine-2,6-dione]	8.73	45.73	20 nM	17.46
O=C1CCC(N2Cc3cc(Cn4ncc5c(-c6ncc(F)cc6F)cc(N6CC(F)C6)nc54)ccc3C2=O)C(=O)N1 (stereo not drawn) [Example 65, 3-(5-{[4-(3,5-difluoropyridin-2-yl)-6-(3-fluoroazetidin-1-yl)-1H-pyrazolo[3,4-b]pyridin-1-yl]methyl}-1-oxo-2,3-dihydro-1H-isoindol-2-yl)piperidine-2,6-dione]	8.72	36.07	4.47 nM	17.03
CN1CCN(c2cc(-c3ncc(C(F)(F)F)cc3Cl)c3cnn(Cc4ccc5c(c4)CN([C@H]4CCC(=O)NC4=O)C5=O)c3n2)CC1 [Example 136, (3S)-3-[5-({4-[3-chloro-5-(trifluoromethyl)pyridin-2-yl]-6-(4-methylpiperazin-1-yl)-1H-pyrazolo[3,4-b]pyridin-1-yl}methyl)-1-oxo-2,3-dihydro-1H-isoindol-2-yl]piperidine-2,6-dione]	≤ 5.00	95.61	≥ 1000 nM	96.76
N#Cc1ccc(-c2c(F)c(N3CC(F)C3)nc3c2cnn3Cc2ccc3c(c2)CN(C2CCC(=O)NC2=O)C3=O)c(F)c1 (stereo not drawn) [Example 41, 4-(1-{[2-(2,6-dioxopiperidin-3-yl)-1-oxo-2,3-dihydro-1H-isoindol-5-yl]methyl}-5-fluoro-6-(3-fluoroazetidin-1-yl)-1H-pyrazolo[3,4-b]pyridin-4-yl)-3-fluorobenzonitrile]	8.91	26.68	1.22 nM	10.49
CN(C)c1cc(-c2ncc(C(F)(F)F)cc2Cl)c2cnn(Cc3ccc4c(c3)CN(C3CCC(=O)NC3=O)C4=O)c2n1 (stereo not drawn) [Example 5, 3-[5-({4-[3-chloro-5-(trifluoromethyl)pyridin-2-yl]-6-(dimethylamino)-1H-pyrazolo[3,4-b]pyridin-1-yl}methyl)-1-oxo-2,3-dihydro-1H-isoindol-2-yl]piperidine-2,6-dione]	9.44	29.57	0.42 nM	6.93
O=C1CC[C@@H](N2Cc3c(ccc(Cn4ncc5c(-c6ncc(F)cc6Cl)cc(N6CC(F)C6)nc54)c3F)C2=O)C(=O)N1 (single isomer, unassigned) [Example 109]	7.99	35.33	42.1 nM	11.09
O=C1CCC(N2Cc3cc(Cn4ncc5c(-c6ncc(Cl)cc6Cl)cc(N6CC(F)C6)nc54)ccc3C2=O)C(=O)N1 (stereo not drawn) [Example 35, 3-(5-{[4-(3,5-dichloropyridin-2-yl)-6-(3-fluoroazetidin-1-yl)-1H-pyrazolo[3,4-b]pyridin-1-yl]methyl}-1-oxo-2,3-dihydro-1H-isoindol-2-yl)piperidine-2,6-dione]	9.23	21.28	0.97 nM	10.02
O=C1CCC(N2Cc3cc(Cn4ncc5c(-c6ncc(F)cc6Cl)cc(N6CC[C@H](O)C6)nc54)ccc3C2=O)C(=O)N1 (stereo partly drawn) [Example 100, 3-(5-{[4-(3-chloro-5-fluoropyridin-2-yl)-6-[(3S)-3-hydroxypyrrolidin-1-yl]-1H-pyrazolo[3,4-b]pyridin-1-yl]methyl}-1-oxo-2,3-dihydro-1H-isoindol-2-yl)piperidine-2,6-dione]	7.87	29.27	26.8 nM	9.53
Cc1cc(Cl)cnc1-c1cc(N2CC(F)C2)nc2c1cnn2Cc1ccc2c(c1)CN([C@H]1CCC(=O)NC1=O)C2=O [Example 50, (3S)-3-(5-{[4-(5-chloro-3-methylpyridin-2-yl)-6-(3-fluoroazetidin-1-yl)-1H-pyrazolo[3,4-b]pyridin-1-yl]methyl}-1-oxo-2,3-dihydro-1H-isoindol-2-yl)piperidine-2,6-dione]	8.67	27.72	2.23 nM	5.82
O=C1CC[C@H](N2Cc3cc(Cn4ncc5c(-c6ncc(F)cc6F)cc(N6CC[C@H](O)C6)nc54)ccc3C2=O)C(=O)N1 [Example 123, (3S)-3-(5-{[4-(3,5-difluoropyridin-2-yl)-6-[(3S)-3-hydroxypyrrolidin-1-yl]-1H-pyrazolo[3,4-b]pyridin-1-yl]methyl}-1-oxo-2,3-dihydro-1H-isoindol-2-yl)piperidine-2,6-dione]	7.55	78.23	109 nM	45.54
CN(c1cc(-c2ncc(F)cc2Cl)c2cnn(Cc3ccc4c(c3)CN(C3CCC(=O)NC3=O)C4=O)c2n1)C(F)(F)F (stereo not drawn) [Example 53, 3-(5-{[4-(3-chloro-5-fluoropyridin-2-yl)-6-[methyl (trifluoromethyl)amino]-1H-pyrazolo[3,4-b]pyridin-1-yl]methyl}-1-oxo-2,3-dihydro-1H-isoindol-2-yl)piperidine-2,6-dione]	8.01	39.88	2.45 nM	7.24
O=C1CC[C@H](N2Cc3cc(Cn4ncc5c(-c6ncc(C(F)(F)F)cc6Cl)cc(NC6CCOCC6)nc54)ccc3C2=O)C(=O)N1 [Example 134, (3S)-3-[5-({4-[3-chloro-5-(trifluoromethyl)pyridin-2-yl]-6-[(oxan-4-yl)amino]-1H-pyrazolo[3,4-b]pyridin-1-yl}methyl)-1-oxo-2,3-dihydro-1H-isoindol-2-yl]piperidine-2,6-dione]	8.07	65.79	≥ 1000 nM	91.34
Cc1cc(C#N)cnc1-c1cc(N2CC(F)C2)nc2c1cnn2Cc1ccc2c(c1)CN(C1CCC(=O)NC1=O)C2=O (stereo not drawn) [Example 91, 6-(1-{[2-(2,6-dioxopiperidin-3-yl)-1-oxo-2,3-dihydro-1H-isoindol-5-yl]methyl}-6-(3-fluoroazetidin-1-yl)-1H-pyrazolo[3,4-b]pyridin-4-yl)-5-methylpyridine-3-carbonitrile]	8.11	24.52	14.1 nM	8.03
O=C1CC[C@H](N2Cc3cc(Cn4ncc5c(-c6ncc(C(F)(F)F)cc6Cl)c(Cl)c(N6CC(F)C6)nc54)ccc3C2=O)C(=O)N1 [Example 2, (3S)-3-[5-({5-chloro-4-[3-chloro-5-(trifluoromethyl)pyridin-2-yl]-6-(3-fluoroazetidin-1-yl)-1H-pyrazolo[3,4-b]pyridin-1-yl}methyl)-1-oxo-2,3-dihydro-1H-isoindol-2-yl]piperidine-2,6-dione]	9.37	14.10	0.24 nM	7.25
Cc1cc(OC(F)F)cnc1-c1cc(N2CC(F)C2)nc2c1cnn2Cc1ccc2c(c1)CN([C@H]1CCC(=O)NC1=O)C2=O [Example 66, (3S)-3-[5-({4-[5-(difluoromethoxy)-3-methylpyridin-2-yl]-6-(3-fluoroazetidin-1-yl)-1H-pyrazolo[3,4-b]pyridin-1-yl}methyl)-1-oxo-2,3-dihydro-1H-isoindol-2-yl]piperidine-2,6-dione]	8.76	27.43	4.63 nM	7.72
Cc1nc2c(-c3ncc(C(F)(F)F)cc3Cl)cc(N3CC(F)C3)nc2n1Cc1ccc2c(c1)CN(C1CCC(=O)NC1=O)C2=O (stereo not drawn) [Example 21, 3-(5-((7-(3-chloro-5-(trifluoromethyl)pyridin-2-yl)-5-(3-fluoroazetidin-1-yl)-2-methyl-3H-imidazo[4,5-b]pyridin-3-yl)methyl)-1-oxoisoindolin-2-yl)piperidine-2,6-dione]	9.04	23.08	1.54 nM	9.84
O=C1CC[C@@H](N2Cc3cc(Cn4ncc5c(-c6ncc(C(F)(F)F)cc6Cl)c(F)c(N6CC(F)C6)nc54)ccc3C2=O)C(=O)N1 (single isomer, unassigned) [Example 78]	8.75	24.33	8.4 nM	5.59
